Assay results: patent US20110009343A1, “MODULATORS OF AMYLOID AGGREGATION” (Praecis Pharmaceuticals, Inc., priority 1995, published 2011)
Marks after values point to notes of the source that are not given here. Primed or numbered codes have the meaning given here. Peptide text beside a SMILES is read from it. * marks the point of attachment. Cholyl = C[C@H](CCC(=O)*)[C@H]1CC[C@H]2[C@@H]3[C@H](O)C[C@@H]4C[C@H](O)CC[C@]4(C)[C@H]3C[C@H](O)[C@]12C; Adp″ = aminoethyldibenzofuranylpropanoic acid, NCCc1cccc2c1oc1c(CCC(=O)*)cccc12; NMeV = CN[C@H](C(=O)O)C(C)C; CA = not defined here

How the values were obtained:
[1] = molecular target: T1, Aβ1-40 (Homo sapiens, UniProt P05067); test: Nucleation assay (turbidity, A405 nm); assay type: biochemical;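 note: synthetic Aβ monomer polymerization followed by turbidity in 96-well plates with continuous shaking, read every 15 minutes over 5 hours, compared against wells lacking test compound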
T1 construct: (β-AP1-40) was obtained commercially from Bachem (Torrance, Calif.); purchased Bachem (Torrance, Calif.)
T1 sequence (P05067 672-711): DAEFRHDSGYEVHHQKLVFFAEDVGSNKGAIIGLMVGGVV
Text: The nucleation assay is employed to determine the ability of test compounds to alter (e.g. inhibit) the early events in formation of β-AP fibers from monomeric β-AP. […] The time delay before polymerization of β-AP monomer can be quantified as well as the extent of formation of insoluble fiber by light scattering (turbidity). Polymerization reaches equilibrium when the maximum turbidity reaches a plateau. The turbidity of a solution of natural β-AP in the absence or presence of various concentrations of a β-amyloid modulator compound is determined by measuring the apparent absorbance of the solution at 405 nm (A405 nm) over time. The threshold of sensitivity for the measurement of turbidity is in the range of 15-20 μM β-AP. […] This assay can be performed using stirring or shaking to accelerate polymerization, thereby increasing the speed of the assay. Moreover the assay can be adapted to a 96-well plate format to screen multiple compounds.
HFIP-solubilized peptide is sonicated in a waterbath sonicator for 5 mM at highest setting, then evaporated to dryness under a stream of argon. The peptide film is resuspended in anhydrous dimethylsulfoxide (DMSO) at a concentration of 6.9 mg/ml (25× concentration), sonicated for 5 mM as before, then filtered through a 0.2 micron nylon syringe filter (VWR cat. No. 28196-050). Test compounds are dissolved in DMSO at a 100× concentration. […] Ten microliters of the mixture is then added to the bottom of a well of a Corning Costar ultra low binding 96-well plate (Corning Costar, Cambridge Mass.; cat. No. 2500). Ninety microliters of water is added to the well, the plate is shaken on a rotary shaken at a constant speed at room temperature for 30 seconds, an additional 100 μl of 2×PTL buffer (20 mM NaH2PO4, 300 mM NaCl, pH 7.4) is added to the well, the plate is reshaken for 30 seconds and a baseline (t=0) turbidity reading is taken by measuring the apparent absorbance at 405 nm using a Bio-Rad Model 450 Microplate Reader. The plate is then returned to the shaker and shaken continuously for 5 hours. Turbidity readings are taken at 15 minute intervals.
β-amyloid aggregation in the absence of any modulators results in enhanced turbidity of the natural β-AP solution (i.e., an increase in the apparent absorbance at 405 nm over time).
Accordingly a fold increase in lag time of 1.0 indicates no change in lag time, whereas numbers >1.0 indicate an increase in lag time. The “% inhibition of plateau”, which is a measure of the ability of the compound to decrease the total amount of aggregation, refers to the reduction of the final turbidity in the presence of the test compound expressed as a percent of the control without the test compound.

[2] = molecular target: T1, Aβ1-40; test: Seeded extension assay (thioflavin T fluorescence); assay type: biochemical; conditions: Table V; 25 mole % inhibitor
Method: The seeded extension assay can be employed to measure the rate of Aβ fiber formed in a solution of Aβ monomer following addition of polymeric Aβ fiber “seed”. The ability of test compounds to prevent further deposition of monomeric Aβ to previously deposited amyloid is determined using a direct indicator of β-sheet formation using fluorescence. In contrast with the nucleation assay, the addition of seed provides immediate nucleation and continued growth of preformed fibrils without the need for continuous mixing, and thus results in the absence of a lag time before polymerization starts. Since this assay uses static polymerization conditions, the activity of positive compounds in the nucleation assay can be confirmed in this second assay under different conditions and with an additional probe of amyloid structure.
In the seeded extension assay, monomeric Aβ140 is incubated in the presence of a “seed” nucleus (approximately ten mole percent of Aβ that has been previously allowed to polymerize under controlled static conditions). Samples of the solution are then diluted in thioflavin T (Th-T). The polymer-specific association of Th-T with Aβ produces a fluorescent complex that allows the measurement of the extent of fibril formation (Levine, H. (1993) Protein Science 2:404-410). In particular, association of Th-T with aggregated β-AP, but not monomeric or loosely associated β-AP, gives rise to a new excitation (ex) maximum at 450 nm and an enhanced emission (em) at 482 nm, compared to the 385 nm (ex) and 445 nm (em) for the free dye. Small aliquots of the polymerization mixture contain sufficient fibril to be mixed with Th-T to allow the monitoring of the reaction mixture by repeated sampling. A linear growth curve is observed in the presence of excess monomer. The formation of thioflavin T responsive β-sheet fibrils parallels the increase in turbidity observed using the nucleation assay.
To prepare the stock seed, 1 ml of the Aβ monomer preparation, is incubated for approximately 8 days at 37° C. and sheared sequentially through an 18, 23, 26 and 30 gauge needle 25, 25, 50, and 100 times respectively. 2 μl samples of the sheared material is taken for fluorescence measurements after every 50 passes through the 30 gauge needle until the fluorescence units (FU) plateau (approx. 100-150×). Test compounds are prepared by dissolving an appropriate amount of test compound in 1×PBS to a final concentration of 1 mM (10× stock). If insoluble, the compound is dissolved in 1/10 volume of DMSO and diluted in 1×PBS to 1 mM. A further 1/10 dilution is also prepared to test each candidate at both 100 μM and 10 μM.
To perform the seeded extension assay, each sample is set up with 50 μl of 200 μM monomer, 125 FU sheared seed (a variable quantity dependent on the batch of seed, routinely 3-6 μl) and 10 μl of 10× modulator solution. The sample volume is then adjusted to a final volume of 100 μl with 1×PBS. Two concentrations of each modulator typically are tested: 100 μM and 10 μM, equivalent to a 1:1 and a 1:10 molar ratio of monomer to modulator. The controls include an unseeded reaction to confirm that the fresh monomer contains no seed, and a seeded reaction in the absence of any modulators, as a reference to compare against candidate modulators. The assay is incubated at 37° C. for 6 h, taking 2 μl samples hourly for fluorescence measurements. To measure fluorescence, a 2 μl sample of Aβ is added to 400 μl of Thioflavin-T solution (50 mM Potassium Phosphate […] pH 7.5). The samples are vortexed and the fluorescence is read in a 0.5 ml micro quartz cuvette at EX 450 nm and EM 482 nm (Hitachi 4500 Fluorimeter).

[3] = Table V, 100 mole % inhibitor relative to Aβ1-40
[4] = Table V, 100 mole % inhibitor, read-out: % Inucl'n (percent reduction in maximum observed turbidity)

Compound | ΔLag (ratio of lag time with test compound to lag time of control) [1, 3] | % Inucl'n (percent reduction in maximum observed turbidity) ([1]; Table V, 100 mole % inhibitor) | % Iext'n (percent reduction of thioflavin-T fluorescence) [2] | further results
CC(C)C[C@H](NC(=O)[C@H](CCCCN)NC(=O)[C@H](CCC(N)=O)NC(=O)[C@H](Cc1c[nH]cn1)NC(=O)[C@H](Cc1c[nH]cn1)NC(=O)CC[C@@H](C)[C@H]1CC[C@H]2[C@@H]3[C@H](O)C[C@@H]4C[C@H](O)CC[C@]4(C)[C@H]3C[C@H](O)[C@]12C)C(=O)N[C@H](C(=O)N[C@@H](Cc1ccccc1)C(=O)N[C@@H](Cc1ccccc1)C(=O)O)C(C)C [PPI-347, cholyl-Aβ13-20] (Cholyl-HHQKLVFF-OH) |  |  |  | Fold Increase in Lag Time ([1]; Table III, 33 mole %): 2.6 fold; Fold Increase in Lag Time ([1]; Table IV, 10 mole %): 2.2 fold
CC(C)C[C@H](NC(=O)[C@H](CCCCN)NC(=O)[C@H](CCC(N)=O)NC(=O)[C@H](Cc1c[nH]cn1)NC(=O)CC[C@@H](C)[C@H]1CC[C@H]2[C@@H]3[C@H](O)C[C@@H]4C[C@H](O)CC[C@]4(C)[C@H]3C[C@H](O)[C@]12C)C(=O)N[C@H](C(=O)N[C@@H](Cc1ccccc1)C(=O)N[C@@H](Cc1ccccc1)C(=O)O)C(C)C [PPI-348, cholyl-Aβ14-20] (Cholyl-HQKLVFF-OH) |  |  |  | Fold Increase in Lag Time ([1]; Table III, 33 mole %): 2.0 fold; inhibition at 33 mol % ([1]; Table V, 33 mol % inhibitor, read-out: % Inucl'n (percent reduction in maximum observed turbidity)): 70%; ΔLag (ratio of lag time with test compound to lag time of control) ([1]; Table V, 33 mole % inhibitor): 2.0
C[C@H](NC(=O)[C@H](C)NC(=O)[C@H](C)NC(=O)[C@H](C)NC(=O)[C@H](C)NC(=O)CC[C@@H](C)[C@H]1CC[C@H]2[C@@H]3[C@H](O)C[C@@H]4C[C@H](O)CC[C@]4(C)[C@H]3C[C@H](O)[C@]12C)C(=O)O [PPI-365, Cholyl-penta-alanine] | 0.8 |  |  | Fold Increase in Lag Time ([1]; Table IV, 100 mole %): ~1 fold; inhibition at 100 mol % [1, 4]: -7%
CC(C)C[C@H](NC(=O)[C@H](CCCCN)NC(=O)[C@H](CCC(N)=O)NC(=O)CC[C@@H](C)[C@H]1CC[C@H]2[C@@H]3[C@H](O)C[C@@H]4C[C@H](O)CC[C@]4(C)[C@H]3C[C@H](O)[C@]12C)C(=O)N[C@H](C(=O)N[C@@H](Cc1ccccc1)C(=O)O)C(C)C [PPI-366] (Cholyl-QKLVF-OH) | 3.1 |  |  | Fold Increase in Lag Time ([1]; Table IV, 10 mole %): 1.6 fold; Fold Increase in Lag Time ([1]; Table IV, 100 mole %): 3.1 fold; inhibition at 100 mol % [1, 4]: -23%
CC(C)C[C@H](NC(=O)[C@H](CCCCN)NC(=O)CC[C@@H](C)[C@H]1CC[C@H]2[C@@H]3[C@H](O)C[C@@H]4C[C@H](O)CC[C@]4(C)[C@H]3C[C@H](O)[C@]12C)C(=O)N[C@H](C(=O)N[C@@H](Cc1ccccc1)C(=O)N[C@@H](Cc1ccccc1)C(=O)O)[C@@H](C)O [PPI-369] (Cholyl-KLTFF-OH) | 1.1 |  |  | Fold Increase in Lag Time ([1]; Table IV, 100 mole %): ~1 fold; inhibition at 100 mol % [1, 4]: -16%
CC(C)C[C@H](NC(=O)[C@H](CCCCN)NC(=O)CC[C@@H](C)[C@H]1CC[C@H]2[C@@H]3[C@H](O)C[C@@H]4C[C@H](O)CC[C@]4(C)[C@H]3C[C@H](O)[C@]12C)C(=O)N[C@H](C(=O)N[C@@H](C)C(=O)N[C@@H](Cc1ccccc1)C(=O)O)C(C)C [PPI-370, cholyl-Aβ16-20 Phe19->Ala] (Cholyl-KLVAF-OH) | 2.6 |  |  | Fold Increase in Lag Time ([1]; Table IV, 100 mole %): 2.6 fold; inhibition at 100 mol % [1, 4]: 73%
CC(C)C[C@H](NC(=O)[C@H](CCCCN)NC(=O)CCCC[C@@H]1SC[C@@H]2NC(=N)N[C@@H]21)C(=O)N[C@H](C(=O)N[C@@H](Cc1ccccc1)C(=O)N[C@@H](Cc1ccccc1)C(=O)O)C(C)C [PPI-374, iminobiotinyl-Aβ16-20] | 1.3 |  |  | Fold Increase in Lag Time ([1]; Table IV, 100 mole %): 1.3 fold; inhibition at 100 mol % [1, 4]: 86%
CC(C)C[C@H](NC(=O)[C@@H](N)CCCCN)C(=O)N[C@H](C(=O)N[C@@H](Cc1ccccc1)C(=O)N[C@@H](Cc1ccccc1)C(=O)O)C(C)C [PPI-377, Aβ16-20] |  |  |  | inhibition at 100 mol % [1, 4]: 0%
CC(C)C[C@H](N)C(=O)N[C@H](C(=O)N[C@@H](Cc1ccccc1)C(=O)N[C@@H](Cc1ccccc1)C(=O)N[C@@H](C)C(=O)O)C(C)C [PPI-386] |  | 15% |  | 
CC(C)C[C@H](NC(=O)[C@@H](N)CCCCN)C(=O)N[C@H](C(=O)N[C@@H](Cc1ccccc1)C(=O)N[C@@H](Cc1ccccc1)C(N)=O)C(C)C [PPI-387] | 1.3 | −9% | 39% | 
CC(C)C[C@H](N)C(=O)N[C@H](C(=O)N[C@@H](Cc1ccccc1)C(=O)N[C@@H](Cc1ccccc1)C(=O)N[C@@H](C)C(N)=O)C(C)C [PPI-405] | 1.3 | 11% | 70% | 
PPI-315: CA-HQKLVFF-nh2 (N-terminal CA cap; C-terminal amide) |  |  |  | % Inucl'n (percent reduction in maximum observed turbidity) ([1]; Table V, 33 mol % inhibitor): 5** %
PPI-380: CA-LVFF-oh |  |  | 51% | % Inucl'n (percent reduction in maximum observed turbidity) ([1]; Table V, 33 mol % inhibitor): 72** %; ΔLag (ratio of lag time with test compound to lag time of control) ([1]; Table V, 33 mole % inhibitor): 1.8
PPI-392: CA-VFFA-oh ({CA}-VFFA-OH; reading uncertain; also: printed as CA-VFFA-oh) | 2.0 | 76% | 10% | 
PPI-393: CA-LVF-oh | 1.3 | 1% | 0% | 
PPI-407: CA-LVFFK-oh |  |  |  | % Inucl'n (percent reduction in maximum observed turbidity) ([1]; Table V, 33 mol % inhibitor): 100** %
PPI-418: h-(Aic)-LVFFA-oh |  |  |  | % Inucl'n (percent reduction in maximum observed turbidity) ([1]; Table V, 33 mol % inhibitor): 100** %

More lines, main results first:

ΔLag (ratio of lag time with test compound to lag time of control) [1, 3] | % Inucl'n (percent reduction in maximum observed turbidity) ([1]; Table V, 100 mole % inhibitor) | % Iext'n (percent reduction of thioflavin-T fluorescence) [2] | Compound | further results
 | −5% |  | CC(C)C[C@H](NC(=O)OC(C)(C)C)C(=O)N[C@H](C(=O)N[C@@H](Cc1ccccc1)C(=O)N[C@@H](Cc1ccccc1)C(=O)N[C@@H](C)C(=O)O)C(C)C [PPI-435] | 
1.8 | 55% | 0% | PPI-394: CA-VFF-oh ({CA}-Val-Phe-Phe-OH; reading uncertain; also: printed as CA-VFF-oh) | 
1.0 | 51% | 6% | PPI-395: CA-FFA-oh ({CA}-Phe-Phe-Ala-OH; reading uncertain; also: printed as CA-FFA-oh) | 
1.4 | −75% |  | PPI-403: h-DDIII(N-Me-Val)DLL(Adp)-HQKLVFF-oh ({H2N-Asp-Asp-Ile-Ile-Ile-NMeV-Asp-Leu-Leu-Adp″}-HQKLVFF-OH) | 
1.0 | 0% |  | PPI-438: CA-GFF-oh ({CA}-Gly-Phe-Phe-OH; reading uncertain; also: printed as PPI-438: CA-GFF-oh) | 
